The test system of the experiment is cholesterol biosynthesis (sterol synthesis, rat liver homogenate). Description: CSI screen: incorporation of 14C-acetate into nonsaponifiable lipid by rat liver homogenate (inhibition of cholesterol biosynthesis). Format: biochemical. As to conditions: rat liver homogenate from cholestyramine-fed rats; inhibition of sterol synthesis over a one-hour period. How it is done:
The ability of compounds of the present invention to inhibit the biosynthesis of cholesterol was measured by a method (designated CSI screen) which utilizes the procedure described by R. E. Dugan et al, Archiv. Biochem. Biophys., (1972), 152, 21-27. In this method, the level of HMG-CoA enzyme activity in standard laboratory rats is increased by feeding the rats a chow diet containing 5cholestyramine for four days, after which the rats are sacrificed.
The rat livers are homogenized, and the incorporation of 14C-acetate into nonsaponifiable lipid by the rat liver homogenate is measured. The micromolar concentration of compound required for 50inhibition of sterol synthesis over a one-hour period is measured, and expressed as an IC50 value.

SMILES strings stand for the structures.

As a reminder, the IC50 is the concentration needed to halve the response being measured. Higher therefore signals a need for much substance. As for `Cc1nc2ccc(Cl)cc2c(-c2ccc(F)cc2)c1/C=C/[C@@H]1C[C@@H](O)CC(=O)O1` (relative stereo) [CHCH, 4-Fluorophenyl, CH3, H, Cl, H, H, [4α,6β(E)]-6[-2-[6-Chloro-4-(4-fluorophenyl)-2-methyl-3-quinolinyl]ethenyl]-tetrahydro-4-hydroxy-2H-pyran-2-one], the IC50 is 350 nM.

Turning to `CC(C)c1nc2ccc(Cl)cc2c(-c2ccc(F)cc2)c1/C=C/[C@@H]1C[C@@H](O)CC(=O)O1` (relative stereo) [[4α,6β(E)]6-[2-[6-Chloro-4-(4-fluorophenyl)-2-(1-methylethyl)-3-quinolinyl]ethenyl]tetrahydro-4-hydroxy-2H-pyran-2-one], the IC50 was 32 nM.

These data come from patent US4761419A, “6-(((substituted)quinolinyl)ethyl)-and ethenyl)tetrahydro-4-hydroxypyran-2-one inhibitors of cholesterol biosynthesis” (Warner-Lambert Company, priority 1987, dated 1988).
